The subject of this test is NF-κB mediated transcription. Put plainly: NF-κB driven β-lactamase reporter assay in ECV-304 NF-κB.βlaZ cells (AURORA CCF2 fluorescence). To be noted: 10 μM compound, ECV-304 NF-κB.βlaZ cells stimulated with 10 ng/mL TNF-α or 100 pg/mL IL-1β, 6 hours at 37° C., inhibition of maximum blue/green ratio; for inhibition at 10 µM: Homo sapiens, read-out: Percent Inhibition at 10 μM. Type of test: cell-based, human. The procedure, abridged:
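Blue/green (460/530 nm, excitation 395 nm) CCF2 emission ratio quantified NF-κB-driven β-lactamase expression in the stably transfected endothelial-like ECV-304 clone 1E8.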
For orientation: In a reporter assay the amount or activity of a reporter protein is the signal.

Read-outs that look alike come from different tables or passages of the source.

Regarding `CCCCCCNS(=O)(=O)NC(=O)Nc1c(C(C)C)cccc1C(C)C` [Example 39, N-[2,6-bis(1-methylethyl)phenyl]-N′-[(hexylamino)sulfonyl]-urea], the inhibition at 10 µM (ECV-304, 6 h) was under 10%.
Turning to `CC[C@H](C=C[C@@H](C)[C@H]1CC[C@H]2[C@@H]3CC=C4C[C@H](OC(=O)NS(=O)(=O)Oc5c(C(C)C)cccc5C(C)C)CC[C@]4(C)[C@H]3CC[C@]12C)C(C)C` [Example 118, Stigmasta-5,22-dien-3-ol, [[2,6-bis(1-methylethyl)phenoxy]sulfonyl]-carbamate, (3α)-], the inhibition at 10 µM (ECV-304, 6 h) was under 10%.
`CC(C)c1cccc(C(C)C)c1OS(=O)(=O)NC(=O)OCCOC(=O)NS(=O)(=O)Oc1c(C(C)C)cccc1C(C)C` [Example 111, Carbamic acid, [[2,6-bis(1-methylethyl)phenoxy]sulfonyl]-, 1,2-ethanediyl ester]: the “Percent Inhibition at 10 μM” value is on record as under 10%.
`CC(C)c1cccc(C(C)C)c1NC(=O)NS(=O)(=O)N(Cc1ccccc1)Cc1ccccc1` [Example 17, N-[2,6-bis(1-methylethyl)phenyl]-N′-[[bis(phenylmethyl)amino]-sulfonyl]-urea]: the inhibition at 10 µM (ECV-304, 6 h) was found to be 43.8%.
For `CSCCC(NC(=O)OC(C)(C)C)C(=O)Nc1cc(C(C)C)c(OS(=O)(=O)NC(=O)Cc2c(C(C)C)cc(C(C)C)cc2C(C)C)c(C(C)C)c1` (centres unmarked) [Example 214, [1-(3,5-Diisopropyl-4-{[(2,4,6-triisopropyl-phenyl)-acetyl]sulfamoyloxy}-phenylcarbamoyl)-3-methylsulfanyl-propyl]-carbamic acid tert-butyl ester], for the setting “ECV-304, 6 h”, the inhibition at 10 µM is 71.7%.
For `CCCCCCCCCCN(CCCCCCCCCC)S(=O)(=O)NC(=O)Oc1c(C(C)(C)C)cc(C)cc1C(C)(C)C` [Example 52, Carbamic acid, [(didecylamino)sulfonyl]-, 2,6-bis(1,1-dimethylethyl)-4-methylphenyl ester], the inhibition at 10 µM was under 10%.
Take `CC(C)c1cc(C(C)C)c(CC(=O)NS(=O)(=O)Oc2c(C(C)C)cc(OCCCN(C)C)cc2C(C)C)c(C(C)C)c1` [Example 205, [(2,4,6-Triisopropyl-phenyl)-acetyl]-sulfamic acid 4-(3-dimethylamino-propoxy)-2,6-diisopropyl-phenyl ester]: the inhibition at 10 µM (ECV-304, 6 h) amounted to 11.7%.
For the compound `CC(C)c1cccc(C(C)C)c1OS(=O)(=O)NC(=O)Cc1ccsc1` [Example 149, (Thiophen-3-yl-acetyl)-sulfamic acid 2,6-diisopropyl-phenyl ester], under “ECV-304, 6 h”, the inhibition at 10 µM was under 10%.
Same read-out and setting: under `COC(=O)c1cc(C(C)C)c(OS(=O)(=O)NC(=O)Cc2c(C(C)C)cc(C(C)C)cc2C(C)C)c(C(C)C)c1` [Example 228, 3,5-Diisopropyl-4-{[(2,4,6-triisopropyl-phenyl)-acetyl]sulfamoyloxy}-benzoic acid methyl ester] stands 76.1%.
In the case of `CCCCCCNS(=O)(=O)NC(=O)Oc1c(C(C)(C)C)cc(C)cc1C(C)(C)C` [Example 34, Carbamic acid, [(hexylamino)sulfonyl]-, 2,6-bis(1,1-dimethylethyl)-4-methylphenyl ester], the inhibition at 10 µM amounted to 24.3%.
`CCC(C)N(C(C)CC)S(=O)(=O)NC(=O)Nc1c(C(C)C)cccc1C(C)C` (centres unmarked) [Example 83, Urea, N-[2,6-bis(1-methylethyl)phenyl]-N′-[[bis(1-methylpropyl)-amino]-sulfonyl]-]: the inhibition at 10 µM (ECV-304, 6 h) is 10.6%.
As for `CC(C)c1cc(C(C)C)c(OS(=O)(=O)NC(=O)Oc2c(C(C)C)cccc2C(C)C)c(C(C)C)c1` [Example 125, Carbamic acid, [[2,4,6-tris(1-methylethyl)phenoxy]sulfonyl]-, 2,6-bis(1-methylethyl)phenyl ester], the inhibition at 10 µM was 11%.
Consider “[2-(2,4,6-Triisopropyl-phenyl)-acetyl]-sulfamic acid 4-(benzylamino-methyl)-2,6-diisopropyl-phenyl ester; compound with generic inorganic neutral component [Example 229]”, for which the “Percent Inhibition at 10 μM” value came out at 75.79%.
In the case of `CCC(C(=O)NS(=O)(=O)Oc1c(C(C)C)cccc1C(C)C)c1ccccc1` (centres unmarked) [Example 169, (2-Phenyl-butyryl)-sulfamic acid 2,6-diisopropyl-phenyl ester], under “ECV-304, 6 h”, the inhibition at 10 µM was determined as 21.3%.
Regarding `CC(C)c1cc(C(C)C)c(CC(=O)NS(=O)(=O)Oc2c(C(C)C)cc(NC(=O)NC(C)(C)C)cc2C(C)C)c(C(C)C)c1` [Example 219, [(2,4,6-Triisopropyl-phenyl)-acetyl]-sulfamic acid 4-(3-tert-butyl-ureido)-2,6-diisopropyl-phenyl ester], the inhibition at 10 µM (ECV-304, 6 h) came to 15.2%.
Regarding `CC(C)c1cc(C(C)C)c(CC(=O)NS(=O)(=O)Oc2c(C(C)C)cc(NC(=O)C(N)Cc3c[nH]c4ccccc34)cc2C(C)C)c(C(C)C)c1` (centres unmarked) [Example 204, [(2,4,6-Triisopropyl-phenyl)-acetyl]-sulfamic acid 4-[2-amino-3-(1H-indol-3-yl)-propionylamino]-2,6-diisopropyl-phenyl ester], for the setting “ECV-304, 6 h”, the inhibition at 10 µM was found to be 70%.
`CC(C)c1cccc(C(C)C)c1NC(=O)NS(=O)(=O)Oc1c(C(C)C)cccc1C(C)C` [Example 95, Sulfamic acid, [[[2,6-bis(1-methylethyl)phenyl]amino]carbonyl]-, 2,6-bis(1-methylethyl)phenyl ester]: under “ECV-304, 6 h”, the inhibition at 10 µM came out at 33.1%.
For `CC(C)c1cccc(C(C)C)c1OS(=O)(=O)NC(=O)C1(c2ccccc2)CCCC1` [Example 168, (1-Phenyl-cyclopentanecarbonyl)-sulfamic acid 2,6-diisopropyl-phenyl ester], the inhibition at 10 µM (ECV-304, 6 h) amounted to 39.1%.
Regarding `CC(=O)c1ccc(OS(=O)(=O)NC(=O)Cc2c(C(C)C)cc(C(C)C)cc2C(C)C)c(C(C)C)c1` [Example 191, [(2,4,6-Triisopropyl-phenyl)-acetyl]-sulfamic acid 4-acetyl-2-isopropyl-phenyl ester], for the setting “ECV-304, 6 h”, the inhibition at 10 µM was determined as 55.7%.
For the compound `COc1ccccc1CC(=O)NS(=O)(=O)Oc1c(C(C)C)cccc1C(C)C` [Example 156, [(2-Methoxy-phenyl)-acetyl]-sulfamic acid 2,6-diisopropyl-phenyl ester], the inhibition at 10 µM (ECV-304, 6 h) is under 10%.
Turning to `CC(C)c1cccc(C(C)C)c1OC(=O)NS(=O)(=O)Oc1c(C(C)C)cccc1C(C)C` [Example 28, Carbamic acid, [[2,6-bis(1-methylethyl)phenoxy]sulfonyl]-, 2,6-bis(1-methylethyl)phenyl ester], the inhibition at 10 µM came out at 30.2%.
Consider `CC(C)c1cccc(C(C)C)c1OS(=O)(=O)NC(=O)Oc1cccnc1` [Example 178, Carbamic acid, [[2,6-bis(1-methylethyl)phenoxy]sulfonyl]-, 3-pyridinyl ester], for which the inhibition at 10 µM was under 10%.
Turning to `CC(C)c1cccc(C(C)C)c1OS(=O)(=O)NC(=O)Oc1c(C(C)(C)C)cc(SSc2cc(C(C)(C)C)c(O)c(C(C)(C)C)c2)cc1C(C)(C)C` [Example 128, Carbamic acid, [[2,6-bis(1-methylethyl)phenoxy]sulfonyl]-, 4-[[3,5-bis(1,1-dimethylethyl)-4-hydroxyphenyl]dithio]-2,6-bis(1,1-dimethylethyl)phenyl ester], the inhibition at 10 µM was under 10%.
The same measure, in the same setting: with `CC(C)c1cccc(C(C)C)c1OC(=O)NS(=O)(=O)Oc1c(C(C)(C)C)cccc1C(C)(C)C` [Example 102, Carbamic acid, [[2,6-bis(1,1-dimethylethyl)phenoxy]sulfonyl]-, 2,6-bis(1-methylethyl)phenyl ester] the figure was 20.6%.
For the compound `CC1CCC(C(C)C)C(OC(=O)NS(=O)(=O)Oc2c(C(C)C)cccc2C(C)C)C1` (centres unmarked) [Example 138, Carbamic acid, [[2,6-bis(1-methylethyl)phenoxy]sulfonyl]-, 5-methyl-2-(1-methylethyl)cyclohexyl ester], the inhibition at 10 µM (ECV-304, 6 h) worked out at 66.2%.
In the case of `Cc1cc(C(C)(C)C)c(OC(=O)NS(=O)(=O)N(C(C)C)C(C)C)c(C(C)(C)C)c1` [Example 32, Carbamic acid, [[bis(1-methylethyl)amino]sulfonyl]-, 2,6-bis(1,1-dimethylethyl)-4-methylphenyl ester], the inhibition at 10 µM stood at 20.3%.
`CCCCCCCCCC(=O)NS(=O)(=O)Oc1c(C(C)C)cccc1C(C)C` [Example 106, Sulfamic acid, (1-oxodecyl)-, 2,6-bis(1-methylethyl)phenyl ester]: the inhibition at 10 µM (ECV-304, 6 h) was determined as 72.3%.
Regarding `CC(C)c1cc(CN(C)C)cc(C(C)C)c1OC(=O)NS(=O)(=O)Oc1c(C(C)C)cccc1C(C)C` [Example 130, Carbamic acid, [[2,6-bis(1-methylethyl)phenoxy]sulfonyl]-, 4-[(dimethylamino)-methyl]-2,6-bis(1-methylethyl)phenyl ester], the inhibition at 10 µM was under 10%.
For the compound `CC(C)c1cccc(C(C)C)c1OC(=O)NS(=O)(=O)N(Cc1ccccc1)Cc1ccccc1` [Example 25, Carbamic acid, [[bis(phenylmethyl)amino]sulfonyl]-, 2,6-bis(1-methylethyl)-phenyl ester], the inhibition at 10 µM is 33.2%.
For the compound `CC(C)c1cccc(C(C)C)c1OS(=O)(=O)NC(=O)Oc1ccc(F)cc1F` [Example 151, Carbamic acid, [[2,6-bis(1-methylethyl)phenoxy]sulfonyl]-, 2,4-difluorophenyl ester], the inhibition at 10 µM was under 10%.
For `CCCCCCN(CCCCCC)S(=O)(=O)NC(=O)Oc1c(C(C)C)cccc1C(C)C` [Example 88, Carbamic acid, [(dihexylamino)sulfonyl]-, 2,6-bis(1-methylethyl)phenyl ester], the inhibition at 10 µM was under 10%.
Consider `CCCCCCCCC(c1ccccc1)S(=O)(=O)NC(=O)Nc1c(C(C)C)cccc1C(C)C` (centres unmarked) [Example 243, N-[2,6-bis(1-methylethyl)phenyl]-N′-(1-phenyl-1-nonylsulfonyl)urea], for which the inhibition at 10 µM (ECV-304, 6 h) was under 10%.

The term inhibition denotes the relative decrease from the control value, in per cent.

For the origin of these results see patent US20020183384A1, “Methods of treating nuclear factor-kappa B mediated diseases and disorders” (priority 2001, published 2002).
